Consider 3 compounds from patent publication US11986530B2, “Drug composition for parenteral administration” (THERABIOPHARMA INC., priority 2016, dated 2024).

Molecules are shown by their SMILES.

Data set [1] is described as follows: Intravenous administration test: concentration of curcumin conjugates and free curcumin in plasma. Format: in vivo, SD rats. The conditions noted are these: rat. The procedure:
As the test animals, 9-week old SD rats (male, with a body weight of 330 to 360 g, CHARLES RIVER LABORATORIES JAPAN, INC.) were used.
The intravenous administration was performed as follows: a predetermined amount of the curcumin monoglucuronide prepared in Production Example 1 was dissolved into water for injection so as to be 30 mg/kg; and the obtained preparation was administered intravenously to each of the test animals (n=5) fasted for 12 hours or more before the administration via an indwelling catheter in the femoral artery of each of the test animals. In this regard, the catheter was indwelled in the femoral artery under isoflurane anesthesia on the day of administration and blood collection.
Blood was collected via a catheter from the femoral artery of each of test animals by using a heparin-treated syringe under the restraint condition in a Ballman cage without anesthesia. In this regard, around 0.6 mL of blood was collected after each lapse of 1, 3, 5, 10, 15, 30, 60, 120, 240 and 480 minutes from the start of intravenous administration, and the collected blood was centrifuged (at 3,000 rpm, for 10 minutes, at 4° C.) to obtain the plasma.
The concentration of each of the curcumin conjugate and free curcumin in plasma was determined by the following methods.
Further, this fractionation process was repeated twice.
In this regard, in the following test, a supernatant liquid prepared by using a β-glucuronidase solution was used as an enzyme-treated sample, and a supernatant liquid prepared by using distilled water in place of the β-glucuronidase solution was used as a non-enzyme-treated sample.
By analyzing 2 μL of the enzyme-treated or non-enzyme-treated sample prepared in the above-described “a. Pretreatment” using LC-MS/MS (manufactured by Shimadzu Corporation), the concentration of each of the curcumin conjugate and free curcumin in plasma was determined.
That is, by measuring the concentration of the curcumin contained in the enzyme-treated sample that had been obtained by the treatment with β-glucuronidase, the total concentration of curcumin in plasma was measured.
On the other hand, by measuring the concentration of the curcumin in the non-enzyme-treated sample that had not been treated with β-glucuronidase, the concentration of free curcumin in plasma was measured.
Further, by subtracting the concentration of free curcumin from the total concentration of curcumin, the concentration of the curcumin conjugates contained in plasma was calculated.
In this regard, the LC-MS/MS analysis conditions were set to be a LC column of Atlantis T3 (2.1×150 mm, 3 μm, manufactured by Waters), a column temperature of 40° C., a flow rate of 0.2 mL/min, and a mobile phase of A of a 0.1% formic acid aqueous solution and B of 0.1% formic acid/acetonitrile, and the gradient elution was performed under the following conditions (Table 1). In addition, the MS analysis conditions were set to be an ionization mode of […] (ESI), Positive, a measurement mode of Multiple Reaction Monitoring (MRM), curcumin of 369.1→177.2 (m/z), and mepronil of 270→119 (m/z), and the evaluation was performed.

The subject of data set [2] is colorectal cancer cells derived from adult human colon HCT116. Description: Anti-tumor effect by intravenous administration of curcumin conjugates (tumor size, HCT116 transplanted mice). Format: in vivo, BALB/cAnNcr j-nu/nu (homo) mice. The conditions noted are these: parenteral (i.v.) administration, 30 or 90 mg/kg, versus control group. The text has this:
1×10^7 or 4×10^6 colorectal cancer cells derived from adult human […] colon HCT116 (ATCC No. CCL-247) were transplanted subcutaneously into the flank of each of the test animals by using a 27 G injection needle.
In this regard, in the control group, mice to which water for injection excluding curcumin monoglucuronide had been administered intravenously were used.
For the tumor size, after each lapse of 0, 4, 7, 11 and 14 days from the start of administration or after each lapse of 0, 4, 7, 11, 14, 18 and 21 days from the start of administration, the length, width and height of the tumor were measured by using a vernier caliper, and the tumor size was calculated by the following equation. Tumor size (mm^3)=length×width×height×0.5 (5) Concentration of Curcumin Conjugates and Free Curcumin in Tumor Tissue

Data set [3] can be described thus: Concentration of curcumin conjugates and free curcumin in tumor tissue. Format: in vivo, BALB/cAnNcr j-nu/nu (homo) mice. The conditions noted are these: mouse, day 21. The procedure:
For the mice (n=8) inoculated with the 4×10^6 cancer cells (HCT116), the tumor after the lapse of 2 hours from the intravenous administration of curcumin monoglucuronide (90 mg/kg) after the lapse of 21 days from the start of inoculation was removed from each of the mice, the removed tumor was rinsed with a saline solution, and then immediately frozen in liquid nitrogen, and the frozen tumor was stored in an ultra-low temperature tank at −80° C.
The frozen and stored tumor was thawed while cooling in ice, an adequate amount of a saline solution was added to the thawed tumor, and the thus obtained tumor was homogenized with a glass homogenizer, the concentration of each of the curcumin conjugates and free curcumin in the pulverized tumor obtained as described above were measured to examine the concentration of each of the curcumin conjugates and free curcumin contained in the tumor tissue.

Another data set deals with KBM-5. The conditions noted are these: KBM-5, in vitro; cited from earlier work.
For another data set, the system named is Jurkat cells. The conditions noted are these: in vitro; cited from earlier work.
The test system of a further data set is U266. The conditions noted are these: U266, in vitro; cited from earlier work.
In another data set the test system is A549. The conditions noted are these: A549, in vitro; cited from earlier work.
The subject of data set [4] is human hepatocellular carcinoma cell lines (HepG2 cells). The conditions noted are these: cited from earlier work.
The conditions of data set [5]: cited from earlier work.
The test system of the next data set is β-glucuronidase. The conditions noted are these: 10 μL of 2.45 μg/mL substrate, pH 5.0, 37° C., 1 hour, n=3.

Protocol for β-glucuronidase: In this regard, as a control, curcumin monoglucuronide was used for the examination.
In addition, as the curcumin diglucuronide, commercially available curcumin diglucuronide (manufactured by SynInnova Laboratories Inc.) was used.
Next, into the resultant mixture, 0.5 mL of chloroform was added, and the mixture was stirred for 1 minute with a vortex mixer, and then the stirred mixture was treated for 15 minutes by using an ultrasonic generator, and the treated mixture was fractionated into a chloroform layer and a water layer by centrifugation (10,000×g, for 5 minutes, at room temperature). Further, this fractionation process was repeated twice. After that, the chloroform layer was collected, and dried and solidified by distilling off the solvent with a vacuum centrifugal concentrator, and to the dried and solidified matter, 100 μL of 50% (v/v) methanol was added, and then the resultant mixture was centrifuged (10,000×g, for 5 minutes, at room temperature) to collect a supernatant liquid, and the collected supernatant liquid was taken as an enzyme-treated sample.
In 2 μL of the enzyme-treated sample prepared in the above (2), free curcumin was measured by the method described in “b.

For the compound `COc1cc(/C=C/C(=O)CC(=O)/C=C/c2ccc(O[C@@H]3O[C@H](C(=O)O)[C@@H](O)[C@H](O)[C@H]3O)c(OC)c2)ccc1O` [curcumin monoglucuronide], the “Cmax (ng/mL) of curcumin conjugates in plasma” value in data set [1] (30 mg/kg i.v.) turned out to be 160492 ± 19156 ng/mL. In data set [1] (30 mg/kg i.v. of conjugate), this compound had an AUC 0.02-8 h (ng·h/mL) of free curcumin in plasma of 2780 ± 962 ng·h/mL. For the same compound, in data set [1] (30 mg/kg i.v. of conjugate), the “Cmax (ng/mL) of free curcumin in plasma” value worked out at 10143 ± 3832 ng/mL. Further, the “concentration of free curcumin in plasma” value in data set [1] (30 mg/kg i.v. of conjugate, 1 minute after administration) was determined as 10143 ± 3832 ng/mL; in [1] (30 mg/kg i.v. of conjugate, 3 minutes) it was 7562 ± 2903 ng/mL; in [1] (30 mg/kg i.v. of conjugate, 5 minutes), 5707 ± 2539 ng/mL; in data set [1] (30 mg/kg i.v. of conjugate, 10 minutes), 3596 ± 1233 ng/mL; in data set [1] (30 mg/kg i.v. of conjugate, 15 minutes), 2764 ± 796 ng/mL; in data set [1] (30 mg/kg i.v. of conjugate, 30 minutes), 1605 ± 592 ng/mL. In addition, the “concentration of free curcumin in plasma” value in data set [1] (30 mg/kg i.v. of conjugate, 1 hour) turned out to be 568 ± 197 ng/mL; in [1] (30 mg/kg i.v. of conjugate, 2 hours), 117 ± 39 ng/mL; in data set [1] (30 mg/kg i.v. of conjugate, 4 hours), 16 ± 5 ng/mL; in data set [1] (30 mg/kg i.v. of conjugate, 8 hours), 6 ± 14 ng/mL. Moreover, the “concentration of curcumin conjugates in plasma” value in [1] (30 mg/kg i.v., 1 minute after administration) was found to be 160492 ± 19156 ng/mL; in data set [1] (30 mg/kg i.v., 3 minutes), 77803 ± 6442 ng/mL; in data set [1] (30 mg/kg i.v., 5 minutes) it was 80489 ± 7161 ng/mL; in data set [1] (30 mg/kg i.v., 10 minutes) it was 46853 ± 10700 ng/mL; in [1] (30 mg/kg i.v., 15 minutes) it was 22918 ± 5271 ng/mL; in data set [1] (30 mg/kg i.v., 30 minutes) it was 10191 ± 3502 ng/mL. Besides, the “concentration of curcumin conjugates in plasma” value worked out at 4363 ± 1354 ng/mL in data set [1] (30 mg/kg i.v., 1 hour); 1493 ± 371 ng/mL in data set [1] (30 mg/kg i.v., 2 hours); 403 ± 120 ng/mL in data set [1] (30 mg/kg i.v., 4 hours); 78 ± 39 ng/mL in [1] (30 mg/kg i.v., 8 hours). Also, the “effect on tumor growth (in words)” value in data set [2] is “significantly suppressing the tumor growth”. Also, in data set [3] (2 hours after 90 mg/kg i.v. of conjugate), the “concentration of the free curcumin in the tumor tissue” value was 1464.5 ± 840.9 ng/g. In addition, in data set [3] (2 hours after 90 mg/kg i.v.), the “concentration of the curcumin conjugates in the tumor tissue” value was 605.4 ± 465.5 ng/g.

As for `COc1cc(/C=C/C(=O)/C=C(O)/C=C/c2ccc(O)c(OC)c2)ccc1O` [curcumin], the “cell growth inhibitory effect” value was “has an effect of suppressing the growth of these cells” in the data set on KBM-5; “has an effect of suppressing the growth of these cells” in the data set on Jurkat cells; “has an effect of suppressing the growth of these cells” in the data set on U266; “has an effect of suppressing the growth of these cells” with A549; “found the cell growth inhibitory effect” in data set [4]. In data set [5], the solubility in water result is recorded as “hardly soluble in water”.

For the compound `COc1cc(/C=C/C(=O)CC(=O)/C=C/c2ccc(O[C@@H]3O[C@H](C(=O)O)[C@@H](O)[C@H](O)[C@H]3O)c(OC)c2)ccc1O[C@@H]1O[C@H](C(=O)O)[C@@H](O)[C@H](O)[C@H]1O` [curcumin diglucuronide], the “concentration of the curcumin contained in the enzyme-treated sample” value in the data set on β-glucuronidase stood at 82.4 ± 0.8 ng/mL. Also, the “cell growth inhibitory effect” value with KBM-5, in the data set on Jurkat cells, with U266 and with A549 was “there is no such an effect” throughout.
